Measured values as given in ChEMBL document CHEMBL1201862, “PubChem BioAssay data set” (2004).
Active and inactive are the calls of the source.

How the values were obtained:
Cytochrome P450 3A4 = Cytochrome P450 3A4 (Homo sapiens, UniProt P08684); conditions: Potency;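 further: confirmatory qHTS run detecting inhibitors and substrates of CYP3A4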
INS1 = experiment: INS-1E survival protection against cytokine death – cell-based, luminescence, retest, dose response (AID 449756); format: functional; conditions: Rattus norvegicus;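 further: cell death triggered by IL-1 beta plus TNF-alpha plus IFN-gamma mixture; protective hits raise ATP signal compared with cytokine alone wells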
HEK293 [1] = experiment: NOD2 signaling inhibitors in MDP-stimulated cells, cell-based, uHTS, luminescence (AID 2001); format: functional; conditions: Homo sapiens
Protein RecA = biological target: T1, Protein RecA (Mycobacterium tuberculosis, UniProt P9WHJ3); experiment: Fluorescence Cell-Free Homogeneous Dose Retest to Identify Inhibitors of RecA-Intein Splicing Activity. [Related pubchem assays (depositor defined):AID2097, AID2223, AID489010, AID492950]; format: functional
T1 sequence (P9WHJ3 whole entry): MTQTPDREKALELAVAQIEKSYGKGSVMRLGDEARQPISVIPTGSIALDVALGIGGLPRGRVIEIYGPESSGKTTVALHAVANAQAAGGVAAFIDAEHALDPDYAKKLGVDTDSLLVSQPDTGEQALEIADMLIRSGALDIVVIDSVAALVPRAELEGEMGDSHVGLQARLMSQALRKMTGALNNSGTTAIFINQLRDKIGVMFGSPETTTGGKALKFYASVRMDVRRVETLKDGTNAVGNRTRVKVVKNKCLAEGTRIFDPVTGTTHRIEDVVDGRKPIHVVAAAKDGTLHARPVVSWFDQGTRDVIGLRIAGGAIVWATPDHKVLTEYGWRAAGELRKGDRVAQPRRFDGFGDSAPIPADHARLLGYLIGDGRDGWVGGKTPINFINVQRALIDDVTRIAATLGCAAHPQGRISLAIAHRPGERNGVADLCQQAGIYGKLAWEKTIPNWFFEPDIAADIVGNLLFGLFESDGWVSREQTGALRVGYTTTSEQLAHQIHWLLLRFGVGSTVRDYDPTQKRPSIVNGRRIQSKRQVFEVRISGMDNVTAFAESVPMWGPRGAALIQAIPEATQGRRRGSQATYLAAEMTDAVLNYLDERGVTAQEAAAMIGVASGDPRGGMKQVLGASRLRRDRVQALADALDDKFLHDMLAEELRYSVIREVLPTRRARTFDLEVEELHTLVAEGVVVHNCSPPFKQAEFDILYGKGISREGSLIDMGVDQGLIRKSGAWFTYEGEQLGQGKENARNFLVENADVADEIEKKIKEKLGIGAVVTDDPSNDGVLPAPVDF

HEK293 [2] = experiment: cells; format: functional, cell-based; conditions: Homo sapiens
HEK293 [3] = experiment: cells; format: functional, cell-based; conditions: Homo sapiens; remark: listed apart in the source
[4] = biological target: T2, Replicative DNA helicase DnaB (Mycobacterium tuberculosis, UniProt P9WMR3); experiment: DnaB intein splicing inhibitors, dose response, biochemical, cell-free fluorescence (AID 449749); format: functional
T2 sequence (P9WMR3 whole entry): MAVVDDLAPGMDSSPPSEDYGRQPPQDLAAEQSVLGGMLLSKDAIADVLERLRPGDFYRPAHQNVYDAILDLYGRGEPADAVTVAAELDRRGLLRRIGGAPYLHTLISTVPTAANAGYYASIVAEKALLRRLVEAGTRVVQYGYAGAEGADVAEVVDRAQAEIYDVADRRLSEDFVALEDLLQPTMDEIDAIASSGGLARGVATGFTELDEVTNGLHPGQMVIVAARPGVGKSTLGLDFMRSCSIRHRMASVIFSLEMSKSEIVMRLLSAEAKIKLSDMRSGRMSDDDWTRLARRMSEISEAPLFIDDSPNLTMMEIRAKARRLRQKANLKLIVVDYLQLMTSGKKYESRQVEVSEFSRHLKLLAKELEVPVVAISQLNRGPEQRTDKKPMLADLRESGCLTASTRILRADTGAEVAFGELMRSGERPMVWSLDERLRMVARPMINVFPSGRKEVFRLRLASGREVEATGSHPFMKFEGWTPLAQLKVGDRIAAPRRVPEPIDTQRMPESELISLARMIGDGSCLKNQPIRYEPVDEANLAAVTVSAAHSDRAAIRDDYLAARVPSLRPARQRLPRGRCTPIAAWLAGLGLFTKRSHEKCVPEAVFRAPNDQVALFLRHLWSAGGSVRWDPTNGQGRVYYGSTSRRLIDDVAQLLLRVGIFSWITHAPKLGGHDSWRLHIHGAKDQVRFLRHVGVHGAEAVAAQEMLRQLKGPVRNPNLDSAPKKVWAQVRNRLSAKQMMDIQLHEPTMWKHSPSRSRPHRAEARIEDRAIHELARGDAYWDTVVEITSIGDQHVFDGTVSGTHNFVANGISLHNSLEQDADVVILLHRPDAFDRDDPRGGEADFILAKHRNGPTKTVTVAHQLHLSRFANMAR

HEK293 [5] = experiment: inhibition of NOD1-driven NF-kB reporter – cell-based, luminescence, uHTS, primary screen (AID 1578); format: functional; conditions: Homo sapiens
[6] = biological target: T3, Short transient receptor potential channel 4 (Mus musculus, UniProt Q9QUQ5); experiment: block of DAMGO-driven TRPC4 calcium entry – cell-based, HEK293 TRPC4/mu-opioid, Fluo-4 calcium, dose response (AID 434942); format: functional;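 further: potency of inhibitors blocking the TRPC4 calcium response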
T3 sequence (Q9QUQ5 whole entry): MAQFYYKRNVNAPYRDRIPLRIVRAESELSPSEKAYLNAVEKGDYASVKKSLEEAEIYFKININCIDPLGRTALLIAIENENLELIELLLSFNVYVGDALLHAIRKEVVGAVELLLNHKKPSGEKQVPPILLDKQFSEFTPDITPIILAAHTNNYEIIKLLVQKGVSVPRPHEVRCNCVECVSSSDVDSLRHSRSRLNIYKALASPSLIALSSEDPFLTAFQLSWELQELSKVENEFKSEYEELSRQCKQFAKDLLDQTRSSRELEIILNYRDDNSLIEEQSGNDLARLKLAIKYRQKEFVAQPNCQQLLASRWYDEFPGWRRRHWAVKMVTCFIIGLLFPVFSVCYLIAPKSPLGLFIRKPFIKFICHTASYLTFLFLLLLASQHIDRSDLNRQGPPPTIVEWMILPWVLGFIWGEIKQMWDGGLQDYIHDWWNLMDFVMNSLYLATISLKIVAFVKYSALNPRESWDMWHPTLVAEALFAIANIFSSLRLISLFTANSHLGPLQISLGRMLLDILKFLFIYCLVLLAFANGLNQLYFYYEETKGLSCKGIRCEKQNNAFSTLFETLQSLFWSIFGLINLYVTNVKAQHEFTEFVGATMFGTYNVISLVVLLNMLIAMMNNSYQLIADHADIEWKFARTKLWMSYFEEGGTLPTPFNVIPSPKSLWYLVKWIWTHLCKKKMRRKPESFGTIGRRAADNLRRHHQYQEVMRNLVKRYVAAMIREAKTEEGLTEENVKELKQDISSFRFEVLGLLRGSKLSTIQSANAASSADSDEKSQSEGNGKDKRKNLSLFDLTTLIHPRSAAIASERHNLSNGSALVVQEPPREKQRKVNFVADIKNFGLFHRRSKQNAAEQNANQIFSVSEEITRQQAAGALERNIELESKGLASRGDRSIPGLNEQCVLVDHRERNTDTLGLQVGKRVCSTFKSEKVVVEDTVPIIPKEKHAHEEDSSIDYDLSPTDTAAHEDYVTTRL

[7] = Luminescence Cell-Based Dose Retest to Confirm Inhibitors of Cancer Stem Cells. [Related pubchem assays (depositor defined):AID2717, AID2721]; format: functional; conditions: Homo sapiens
Protein Wnt-3a = Protein Wnt-3a (Mus musculus, UniProt P27467); experiment: antagonism of Wnt3a pathway luciferase reporter – Wnt-LIGHT cells, luminescence, selectivity assay for Gli-SUFU antagonist project, dose response (AID 651570); format: functional; conditions: read-out: IC50_Mean;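 further: Wnt-LIGHT reporter cells stimulated with conditioned medium from Wnt3a-producing cells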
[8] = reduction of Shn3 3'UTR-driven luciferase in osteoblasts – cell-based, Clone20 osteoblasts, firefly luciferase, cherry-picked, dose response (AID 624132); format: functional;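 further: firefly luciferase luminescence from reporter carrying the Shn3 3'UTR in osteoblasts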
[9] = non-specific 3'UTR reporter inhibition in Clone20-Shn3RL – cell-based, Renilla luciferase, cherry-picked, counter-screen for Shn3 inhibitor project, dose response (AID 624133); format: functional
[10] = intracellular Trypanosoma cruzi inhibitors in host cells – cell-based, plate reader, cherry-pick samples, set 3, dose response (AID 651818); format: functional;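 further: compounds incubated with infected cells for about four days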
[11] = HEK-293T viability loss after treatment – luminescence, T-cell screen hits, cytotoxicity control for TCR NF-kB inhibitor project, dose response (AID 489026); format: functional, cell-based;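 further: cells exposed to compound about 14 hours before the viability readout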

Chain of Cytochrome P450 3A4 (P08684 whole entry): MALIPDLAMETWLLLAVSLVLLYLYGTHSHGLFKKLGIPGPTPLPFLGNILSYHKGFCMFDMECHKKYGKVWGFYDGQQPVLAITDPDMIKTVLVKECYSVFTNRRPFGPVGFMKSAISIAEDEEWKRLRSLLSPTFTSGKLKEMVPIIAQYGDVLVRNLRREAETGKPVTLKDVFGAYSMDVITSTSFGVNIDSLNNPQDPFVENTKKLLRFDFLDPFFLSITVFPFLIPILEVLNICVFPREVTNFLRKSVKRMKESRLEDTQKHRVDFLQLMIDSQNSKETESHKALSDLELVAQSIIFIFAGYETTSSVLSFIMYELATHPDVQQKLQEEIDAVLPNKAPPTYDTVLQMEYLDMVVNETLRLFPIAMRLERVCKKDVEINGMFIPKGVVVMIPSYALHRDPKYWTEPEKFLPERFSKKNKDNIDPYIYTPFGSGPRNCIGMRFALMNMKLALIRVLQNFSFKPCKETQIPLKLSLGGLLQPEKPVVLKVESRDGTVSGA
Chain of Protein Wnt-3a (P27467 whole entry): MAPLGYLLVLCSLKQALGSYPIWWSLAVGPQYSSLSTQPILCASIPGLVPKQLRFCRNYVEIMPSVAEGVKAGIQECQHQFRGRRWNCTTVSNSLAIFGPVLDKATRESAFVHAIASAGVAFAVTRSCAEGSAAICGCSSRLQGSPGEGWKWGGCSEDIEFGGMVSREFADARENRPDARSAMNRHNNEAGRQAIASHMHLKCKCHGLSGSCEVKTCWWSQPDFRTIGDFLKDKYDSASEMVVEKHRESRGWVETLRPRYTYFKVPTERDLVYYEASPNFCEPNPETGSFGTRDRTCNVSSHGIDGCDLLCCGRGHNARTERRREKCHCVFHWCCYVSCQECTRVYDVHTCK

In the case of `Nc1nc(/C(=C/CC(=O)O)C(=O)NC2C(=O)N3C(C(=O)O)=CCSC23)cs1` (stereo unspecified), the AC50 (Cytochrome P450 3A4) is reported as 31.6 µM (inconclusive).
With `COC(C1CCCCC1)C(C)C(OCc1cccc(Br)c1)C(C)CO` (stereo unspecified) the AC50 (Cytochrome P450 3A4) was 3.16 µM (inconclusive).
In the case of `O=C(C(Cl)Cl)N1c2ccccc2OCC1c1ccccc1` (stereo unspecified), the AC50 (INS1) is reported as 8.54 µM (active), the IC50 (HEK293 [1]) is reported as > 20 µM (inactive) and the EC50 (Protein RecA) is reported as 1.25 µM (active). For the same compound, the IC50 (HEK293 [2]) was > 20 µM (inactive), the IC50 (HEK293 [3]) was 16.9 µM (active) and the AC50 [4] was 10 µM (active). For the same compound, the EC50 (HEK293 [5]) was 13.8 µM (active).
For `OCCNCc1cc(Br)ccc1OCc1ccc(F)cc1`, the EC50 [6] was 1.88 µM (active).
For `Cc1nc(C2CCC3C4CCC5=CC(=O)CC[C@]5(C)C4CC[C@]23C)cs1` (stereo partly specified), the IC50 (HEK293 [1]) was 3.56 µM (active), the IC50 (HEK293 [2]) was 9.14 µM (active) and the AC50 [7] was 6.32 µM (active). The IC50 (HEK293 [3]) was 3.42 µM (active) and the EC50 (HEK293 [5]) was 2.24 µM (active).
With `CC(Sc1n[nH]c2c3ccccc3nc-2n1)C(=O)N(C)C1CCCCC1` (stereo unspecified) the AC50 (INS1) was 16.1 µM (active), the IC50 (HEK293 [1]) was 6.67 µM (active) and the IC50 (HEK293 [2]) was 12.9 µM (active). The IC50 (HEK293 [3]) was 6.41 µM (active) and the EC50 (HEK293 [5]) was 4.74 µM (active).
With `Cc1cccc(CCN2C(N(C)C)=NC[C@@H]2CC(C)C)c1` the IC50 (Protein Wnt-3a) was 9.13 µM (active), the AC50 [8] was 1.45 µM (active) and the AC50 [9] was 8.04 µM (active).
In the case of `C/C(=N\Nc1ccc(Cl)nn1)c1ccccc1O`, the IC50 (Protein Wnt-3a) is reported as 50 µM (inactive).
With `COc1ccc(CN(C)C[C@H]2Oc3ccc(NC(=O)Cc4cn(C)c5ccccc45)cc3CC(=O)N([C@@H](C)CO)C[C@@H]2C)cc1` the AC50 [10] was 3.08 µM (active).
For `CC1CC(O)[C@]2(O)[C@]13CC(=O)OC[C@@]2(C)[C@@](C)(O)C(=O)C3` (stereo partly specified), the AC50 (Cytochrome P450 3A4) was 31.6 µM (inconclusive).
For `O=C(c1ccc(Cl)cc1)C1CCCN(C2CCSCC2)C1` (stereo unspecified), the EC50 [6] was 0.531 µM (active).
With `C[C@H](CO)N1C[C@H](C)[C@H](CN(C)Cc2ccc(C(F)(F)F)cc2)Oc2ccc(NC(=O)Nc3ccc(C(F)(F)F)cc3)cc2CC1=O` the AC50 [10] was 2.66 µM (active).
With `CC(C)(C)OC(=O)NCCCCCc1cn(CC(=O)NCCCCCCCCCCC(=O)N2CCN(C(=O)OC(C)(C)C)CC2)nn1` the IC50 (Protein Wnt-3a) was 21.9 µM (inactive) and the IC50 [11] was > 80 µM (inactive).
With `CC(=O)C1CCC2C3CC(C)C4=CC(=O)CC[C@@]4(C)C3C(O)C[C@@]12C` (stereo partly specified) the AC50 (Cytochrome P450 3A4) was 31.6 µM (inconclusive).
